# Reference: patent US20240398784A1, “C-LINKED ISOQUINOLINE AMIDES AS LRRK2 INHIBITORS, PHARMACEUTICAL COMPOSITIONS, AND USES THEREOF” (Merck Sharp & Dohme LLC, priority 2021, published 2024)
# Target: LRRK2 G2019S (Homo sapiens, UniProt Q5S007, G2019S)
# Assay: LRRK2 G2019S Km ATP LanthaScreen assay
# Type: biochemical
# Conditions: read-out: LRRK2 pIC50 (converted)
# Sequence of LRRK2 G2019S (Q5S007 whole entry G2019S): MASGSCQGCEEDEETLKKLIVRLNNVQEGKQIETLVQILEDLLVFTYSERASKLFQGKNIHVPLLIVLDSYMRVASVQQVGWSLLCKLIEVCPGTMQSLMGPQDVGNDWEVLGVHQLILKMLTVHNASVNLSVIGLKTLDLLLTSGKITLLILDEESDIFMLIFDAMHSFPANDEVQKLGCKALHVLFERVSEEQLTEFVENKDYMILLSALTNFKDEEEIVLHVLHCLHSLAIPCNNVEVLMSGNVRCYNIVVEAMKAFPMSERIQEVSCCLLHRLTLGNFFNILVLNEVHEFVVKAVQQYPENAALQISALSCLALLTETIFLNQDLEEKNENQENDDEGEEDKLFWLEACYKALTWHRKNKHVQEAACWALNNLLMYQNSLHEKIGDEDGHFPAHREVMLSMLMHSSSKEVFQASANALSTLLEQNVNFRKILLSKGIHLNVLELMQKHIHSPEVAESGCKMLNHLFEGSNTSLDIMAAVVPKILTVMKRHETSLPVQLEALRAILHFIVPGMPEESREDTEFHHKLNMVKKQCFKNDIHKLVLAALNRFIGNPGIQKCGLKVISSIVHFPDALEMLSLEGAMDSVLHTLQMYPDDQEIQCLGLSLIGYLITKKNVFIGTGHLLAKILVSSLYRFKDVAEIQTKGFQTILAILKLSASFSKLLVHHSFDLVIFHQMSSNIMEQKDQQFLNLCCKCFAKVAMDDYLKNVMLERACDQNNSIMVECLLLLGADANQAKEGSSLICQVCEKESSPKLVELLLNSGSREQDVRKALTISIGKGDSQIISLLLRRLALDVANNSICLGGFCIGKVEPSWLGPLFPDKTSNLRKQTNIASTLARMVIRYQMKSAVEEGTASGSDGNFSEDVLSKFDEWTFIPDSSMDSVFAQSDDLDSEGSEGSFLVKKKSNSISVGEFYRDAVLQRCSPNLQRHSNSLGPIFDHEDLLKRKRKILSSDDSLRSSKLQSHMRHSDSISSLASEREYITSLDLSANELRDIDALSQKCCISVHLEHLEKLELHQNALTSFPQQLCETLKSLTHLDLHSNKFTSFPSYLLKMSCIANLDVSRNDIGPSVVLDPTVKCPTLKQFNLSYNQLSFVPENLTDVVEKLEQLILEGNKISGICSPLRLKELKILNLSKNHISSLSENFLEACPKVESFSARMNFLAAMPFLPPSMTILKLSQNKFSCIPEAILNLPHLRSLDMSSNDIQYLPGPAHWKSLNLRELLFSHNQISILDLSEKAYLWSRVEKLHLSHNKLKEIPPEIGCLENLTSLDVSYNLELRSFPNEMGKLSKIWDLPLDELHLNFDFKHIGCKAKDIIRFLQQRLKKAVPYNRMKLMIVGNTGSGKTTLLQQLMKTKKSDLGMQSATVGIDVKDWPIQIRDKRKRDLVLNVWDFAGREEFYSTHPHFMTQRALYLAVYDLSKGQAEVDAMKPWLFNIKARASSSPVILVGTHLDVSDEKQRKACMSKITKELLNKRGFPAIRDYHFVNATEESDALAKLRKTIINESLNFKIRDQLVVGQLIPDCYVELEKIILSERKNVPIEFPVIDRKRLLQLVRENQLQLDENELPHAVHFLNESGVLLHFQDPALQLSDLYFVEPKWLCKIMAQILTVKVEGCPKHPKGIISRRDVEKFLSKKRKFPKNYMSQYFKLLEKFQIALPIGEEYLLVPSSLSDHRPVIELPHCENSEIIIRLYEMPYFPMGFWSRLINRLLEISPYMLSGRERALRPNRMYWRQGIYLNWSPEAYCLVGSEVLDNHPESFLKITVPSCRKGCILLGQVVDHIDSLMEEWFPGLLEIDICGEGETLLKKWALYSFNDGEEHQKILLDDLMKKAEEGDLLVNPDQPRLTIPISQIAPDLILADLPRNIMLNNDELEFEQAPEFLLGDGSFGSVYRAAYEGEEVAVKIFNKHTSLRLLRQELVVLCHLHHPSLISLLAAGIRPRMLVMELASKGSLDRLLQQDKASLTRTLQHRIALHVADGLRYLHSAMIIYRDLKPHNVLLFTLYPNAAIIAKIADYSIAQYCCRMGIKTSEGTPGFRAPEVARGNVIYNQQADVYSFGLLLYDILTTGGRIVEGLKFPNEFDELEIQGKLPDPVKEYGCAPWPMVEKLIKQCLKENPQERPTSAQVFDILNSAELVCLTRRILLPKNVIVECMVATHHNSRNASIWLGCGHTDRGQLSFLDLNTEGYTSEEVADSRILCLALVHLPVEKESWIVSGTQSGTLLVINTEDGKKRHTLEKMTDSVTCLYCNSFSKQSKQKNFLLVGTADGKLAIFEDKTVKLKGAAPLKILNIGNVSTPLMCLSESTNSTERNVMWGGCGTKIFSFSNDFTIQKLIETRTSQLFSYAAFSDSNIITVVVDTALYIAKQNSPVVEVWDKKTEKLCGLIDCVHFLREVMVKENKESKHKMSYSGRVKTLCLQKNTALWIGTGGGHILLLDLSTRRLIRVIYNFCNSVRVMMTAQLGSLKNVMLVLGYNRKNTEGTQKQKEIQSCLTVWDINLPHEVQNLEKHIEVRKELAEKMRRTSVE
row,Structure (SMILES),IC50 [nM]
1,"CC1(C)CCC(C(=O)Nc2cc3cc(C4CCN(C5(C)COCC5O)CC4)c(Cl)cc3cn2)CO1 (single isomer, unassigned) [Ex-4.26, N-(7-chloro-6-(1-(4-hydroxy-3-methyltetrahydrofuran-3-yl)piperidin-4-yl)isoquinolin-3-yl)-6,6-dimethyltetrahydrofuran-2H-pyran-3-carboxamide]",0.427
2,"Cn1cc(C2CC2C(=O)Nc2cc3cc(C4CC(N5CC(F)C5)C4)c(Cl)cc3cn2)cn1 (single isomer, unassigned) [Ex-5.25, N-(7-chloro-6-(3-(3-fluoroazetidin-1-yl)cyclobutyl)isoquinolin-3-yl)-2-(1-methyl-1H-pyrazol-4-yl)cyclopropane-1-carboxamide]",0.575
3,"N#CC1(c2ccc3cnc(NC(=O)C4CCC4)cc3c2)CC12CC2 (single isomer, unassigned) [Ex-1.15, (R or S)-N-(6-(1-cyanospiro[2.2]pentan-1-yl)isoquinolin-3-yl)cyclobutanecarboxamide]",3.24
4,"COC1CC(C(=O)Nc2cc3cc(C4CCN(C5COC5)CC4)c(Cl)cc3cn2)C1 (racemic) [Ex-7.9, Rac-N-(7-chloro-6-(1-(oxetan-3-yl)piperidin-4-yl)isoquinolin-3-yl)-3-methoxycyclobutane-1-carboxamide]",2.63
5,"N#CC1(c2ccc3cnc(NC(=O)C4CC45CC5)cc3c2)CC12CC2 (single isomer, unassigned) [Ex-2.2]",0.398
6,"O=C(Nc1cc2cc(C3CCN(C4COCC4O)CC3)c(Cl)cc2cn1)C1CC12CCOCC2 (single isomer, unassigned) [Ex-4.4, N-(7-chloro-6-(1-(4-hydroxytetrahydrofuran-3-yl)piperidin-4-yl)isoquinolin-3-yl)-6-oxaspiro[2.5]octane-1-carboxamide]",117
7,"CC1(N2CCC(c3cc4cc(NC(=O)C5CC5c5ccco5)ncc4cc3Cl)CC2)COCC1O (single isomer, unassigned) [Ex-4.65, N-(7-chloro-6-(1-(4-hydroxy-3-methyltetrahydrofuran-3-yl)piperidin-4-yl)isoquinolin-3-yl)-2-(furan-2-yl)cyclopropane-1-carboxamide]",0.708
8,"C[C@@]1(N2CCC(c3cc4cc(NC(=O)c5ccn(C6CC6)n5)ncc4cc3Cl)CC2)COC[C@@H]1O (single isomer, unassigned) [Ex-1.49, N-(7-chloro-6-(1-((3R,4R or 3S,4S)-4-hydroxy-3-methyltetrahydrofuran-3-yl)piperidin-4-yl)isoquinolin-3-yl)-1-cyclopropyl-1H-pyrazole-3-carboxamide]",38.9
9,CC1(C)CC(C(=O)Nc2cc3cc(C4CCN(C5(C)COCC5O)CC4)c(Cl)cc3cn2)CCO1 (centres unmarked) [Ex-2.35],2.63
10,"CC1(N2CCC(c3cc4cc(NC(=O)C5C6CCOCC65)ncc4cc3Cl)CC2)COCC1F (single isomer, unassigned) [Ex-6.43, N-(7-chloro-6-(1-(4-fluoro-3-methyltetrahydrofuran-3-yl)piperidin-4-yl)isoquinolin-3-yl)-3-oxabicyclo[4.1.0]heptane-7-carboxamide]",2.82
11,Cn1ncc(C2CC2C(=O)Nc2cc3cc(C4(C#N)CC45CC5)ccc3cn2)c1Cl (centres unmarked) [Ex-2.79],34.7
12,"CC1C(C(=O)Nc2cc3cc(C4CCN(C5(C)COCC5O)CC4)c(Cl)cc3cn2)C1c1ccccn1 (single isomer, unassigned) [Ex-4.52, N-(7-chloro-6-(1-(4-hydroxy-3-methyltetrahydrofuran-3-yl)piperidin-4-yl)isoquinolin-3-yl)-2-methyl-3-(pyridin-2-yl)cyclopropane-1-carboxamide]",15.1
13,Cn1ncc(C2CC2C(=O)Nc2cc3cc(C4(C#N)CC45CC5)ccc3cn2)c1Cl (centres unmarked) [Ex-2.78],16.2
14,CCOC1CC1C(=O)Nc1cc2cc(C3CCN(C4(C)COCC4O)CC3)c(Cl)cc2cn1 (centres unmarked) [Ex-2.10],1.15
15,CC1(N2CCC(c3cc4cc(NC(=O)C5CC5F)ncc4cc3Cl)CC2)COCC1O (centres unmarked) [Ex-3.4],1.55
16,"CC(C)n1nccc1C1CC1C(=O)Nc1cc2cc(C3CCN(C4(C)COCC4O)CC3)c(Cl)cc2cn1 (single isomer, unassigned) [Ex-4.64, N-(7-chloro-6-(1-(4-hydroxy-3-methyltetrahydrofuran-3-yl)piperidin-4-yl)isoquinolin-3-yl)-2-(1-isopropyl-1H-pyrazol-5-yl)cyclopropane-1-carboxamide]",2.45
17,"CCC1C(C(=O)Nc2cc3cc(C4CCN(C5(C)COCC5O)CC4)c(Cl)cc3cn2)C1c1ccccn1 (single isomer, unassigned) [Ex-4.56, N-(7-chloro-6-(1-(4-hydroxy-3-methyltetrahydrofuran-3-yl)piperidin-4-yl)isoquinolin-3-yl)-2-ethyl-3-(pyridin-2-yl)cyclopropane-1-carboxamide]",18.2
18,CC1(N2CCC(c3cc4cc(NC(=O)C5CCC5C#N)ncc4cc3Cl)CC2)COCC1F (centres unmarked) [Ex-2.94],0.0813

row,Structure (SMILES),IC50 [nM]
1,"CC1(C)COCC1(C)N1CCC(c2cc3cc(NC(=O)C4CC45CCOCC5)ncc3cc2Cl)CC1 (single isomer, unassigned) [Ex-6.18, N-(7-chloro-6-(1-(3,4,4-trimethyltetrahydrofuran-3-yl)piperidin-4-yl)isoquinolin-3-yl)-6-oxaspiro[2.5]octane-1-carboxamide]",0.708
2,"CC1(C)CCC(C(=O)Nc2cc3cc(C4CCN(C5(C)COCC5O)CC4)c(Cl)cc3cn2)CO1 (single isomer, unassigned) [Ex-4.25, N-(7-chloro-6-(1-(4-hydroxy-3-methyltetrahydrofuran-3-yl)piperidin-4-yl)isoquinolin-3-yl)-6,6-dimethyltetrahydrofuran-2H-pyran-3-carboxamide]",0.776
3,CC(C)(O)C1CC(C(=O)Nc2cc3cc(C4CCN(C5(C)COCC5O)CC4)c(Cl)cc3cn2)C1 (centres unmarked) [Ex-2.13],0.174
4,"O=C(Nc1cc2cc(C3CCC(N4CC(F)C4)CC3)c(Cl)cc2cn1)C1CC12CCOCC2 (single isomer, unassigned) [Ex-11.5, N-(7-chloro-6-(4-(3-fluoroazetidin-1-yl)cyclohexyl)isoquinolin-3-yl)-6-oxaspiro[2.5]octane-1-carboxamide]",186
5,"COC1CN(C2CCC(c3cc4cc(NC(=O)C5CC56CCOCC6)ncc4cc3Cl)CC2)C1 (single isomer, unassigned) [Ex-11.4, N-(7-chloro-6-(4-(3-methoxyazetidin-1-yl)cyclohexyl)isoquinolin-3-yl)-6-oxaspiro[2.5]octane-1-carboxamide]",1.7
6,"CC1(N2CCC(c3cc4cc(NC(=O)C5COC6(CCC6)C5)ncc4cc3Cl)CC2)COCC1O (single isomer, unassigned) [Ex-4.18, N-(7-chloro-6-(1-(4-hydroxy-3-methyltetrahydrofuran-3-yl)piperidin-4-yl)isoquinolin-3-yl)-5-oxaspiro[3.4]octane-7-carboxamide]",0.166
7,"COCC(C)c1cc2cc(NC(=O)C3CC34CCOCC4)ncc2cc1Cl (single isomer, unassigned) [Ex-9.11, N-(7-chloro-6-(1-methoxypropan-2-yl)isoquinolin-3-yl)-6-oxaspiro[2.5]octane-1-carboxamide]",44.7
8,"CC(CC#N)c1cc2cc(NC(=O)C3CC3c3ccccn3)ncc2cc1Cl (single isomer, unassigned) [Ex-9.21, N-(7-chloro-6-(1-cyanopropan-2-yl)isoquinolin-3-yl)-2-(pyridin-2-yl)cyclopropane-1-carboxamide]",26.3
9,"Cn1ncc(C2CC2C(=O)Nc2cc3cc(C4CCN(C5(C)COCC5O)CC4)c(Cl)cc3cn2)n1 (racemic) [Ex-20.2, (1R,2R and 1S,2S)-N-(7-chloro-6-(1-(4-hydroxy-3-methyltetrahydrofuran-3-yl)piperidin-4-yl)isoquinolin-3-yl)-2-(2-methyl-2H-1,2,3-triazol-4-yl)cyclopropane-1-carboxamide]",0.0813
10,"N#CC1(c2ccc3cnc(NC(=O)C4CC45CC5)cc3c2)CC12CC2 (single isomer, unassigned) [Ex-2.1]",0.871
11,"CC1(N2CCC(c3cc4cc(NC(=O)C5CCC5c5ccccn5)ncc4cc3Cl)CC2)COCC1O (single isomer, unassigned) [Ex-4.73, N-(7-chloro-6-(1-(4-hydroxy-3-methyltetrahydrofuran-3-yl)piperidin-4-yl)isoquinolin-3-yl)-2-(pyridin-2-yl)cyclobutane-1-carboxamide]",661
12,Cc1cc2cnc(NC(=O)C3C4CCOCC43)cc2cc1C1CCN(C2(C)COCC2O)CC1 (centres unmarked) [Ex-2.52],0.676
13,"CC1(N2CCC(c3cc4cc(NC(=O)C5CC5c5cc(F)ccn5)ncc4cc3Cl)CC2)COCC1O (single isomer, unassigned) [Ex-4.39, N-(7-chloro-6-(1-(4-hydroxy-3-methyltetrahydrofuran-3-yl)piperidin-4-yl)isoquinolin-3-yl)-2-(4-fluoropyridin-2-yl)cyclopropane-1-carboxamide]",135
14,"CC1(N2CCC(c3cc4cc(NC(=O)C5CC56CCOCC6)ncc4cc3Cl)CC2)CCOCC1F (single isomer, unassigned) [Ex-12.2, N-(7-chloro-6-(1-((3R,4R or 3S,4S)-3-fluoro-4-methyltetrahydro-2H-pyran-4-yl)piperidin-4-yl)isoquinolin-3-yl)-6-oxaspiro[2.5]octane-1-carboxamide]",6.46
15,"CC1(N2CCC(c3cc4cc(NC(=O)C5CC5C(F)F)ncc4cc3Cl)CC2)COCC1O (single isomer, unassigned) [Ex-10.10, N-(7-chloro-6-(1-(4-hydroxy-3-methyltetrahydrofuran-3-yl)piperidin-4-yl)isoquinolin-3-yl)-2-(difluoromethyl)cyclopropane-1-carboxamide]",15.5
16,"Cc1cc2cnc(NC(=O)C3CC3c3cnn(C)c3)cc2cc1C1CC12CC2 (single isomer, unassigned) [Ex-16.4, 2-(1-methyl-1H-pyrazol-4-yl)-N-(7-methyl-6-(spiro[2.2]pentan-1-yl)isoquinolin-3-yl)cyclopropane-1-carboxamide]",28.8
17,"CC1(N2CCC(c3cc4cc(NC(=O)C5CC5c5cccnc5)ncc4cc3Cl)CC2)COCC1O (single isomer, unassigned) [Ex-4.42, N-(7-chloro-6-(1-(4-hydroxy-3-methyltetrahydrofuran-3-yl)piperidin-4-yl)isoquinolin-3-yl)-2-(pyridin-3-yl)cyclopropane-1-carboxamide]",200
